Measured values taken from US11998005B2, “Herbicidal formulations comprising glyphosate and COTE-based adjuvants” (NOURYON CHEMICALS INTERNATIONAL B.V., priority 2018, dated 2024).

System: wheat representing narrow leaf weeds
Assay: Bioefficacy, greenhouse spray test with IPA glyphosate + adjuvant
Type: in vivo
Conditions: compared to untreated plant
Procedure: All bioefficacy testing was done at University of Georgia's Agricultural Experiment Station in Griffin, Georgia Concentrates were first formulated by blending IPA glyphosate salt with the desired amount surfactant and water resulting in a 20 wt % ae and a 6.49% surfactant solution. Prior to spraying two sets of diluted solutions were prepared by dissolving 16 g of concentrates into 984 grams of tap water and a second set by dissolving 500 g of the above dilute solution into 500 g of tap water. […] All of the plants were placed in a temperature controlled greenhouse and measured for growth (or lack of) each week for a period of 4 weeks. The data is reported as % Growth Control compared to untreated plant. The higher the value the better the bioefficacy. When the last measurement was taken at 4 weeks the plants are cut at the roots and the “fresh” weight measured.
Testing in the foregoing manner yielded the following results: • Plant Species—Wheat • IPA-glyphosate application rate—300 g a.e./H
• Plant Species—Wheat • IPA-glyphosate application rate—600 g a.e./H

SMILES: O=C(O)CNCP(=O)(O)O [IPA-Glyphosate only, N-phosphonomethylglycine]
- % Growth Control (IPA-glyphosate application rate 300 g a.e./H): 31%
- % Growth Control (IPA-glyphosate application rate 600 g a.e./H): 72%
